Experimental data from patent US6743413B1, “Suspension aerosol formulations” (3M Company, priority 1991, dated 2004).
Where “and” joins values, the source holds several entries; their conditions need not be identical. Equal values may be shown once.

Legend:
Assay type in all cases: physicochemical
[1] = Visual assessment of suspension formulations by time lapse photography 10 and 30 seconds after agitation; design: key: + = visually acceptable formulation; − = visually unacceptable formulation; ? = border line acceptable formulation
Protocol: (§1) For each of the micronized drug substances A-G set forth below, formulations were prepared at drug concentrations of 0.017 percent, 0.039 percent, 0.083 percent, 0.41 percent, and 1.6 percent by weight based on the total weight of the formulation (corresponding to 0.20 mg/mL, 0.50 mg/mL, 1.0 mg/mL, 5.0 mg/Ml, and 20 mg/mL, respectively). The formulations were prepared by dispersing micronized drug in HFC 134a in a sealed 15 mL clear PET vial using ultrasonic energy.
Using time lapse photography 10 and 30 seconds after agitation the formulations were assessed as follows: […]
The formulations were photographed using time lapse photography at 10 and 30 seconds post agitation and were assessed as follows: […]

[2] = Visual observation of suspension aerosol formulations (dispersion, flocculation, settling, creaming, suitability for metered dose inhaler); conditions: for homogeneity of suspension: Example 1: 1.6 percent in HFC 134a
Protocol: as §1
For each propellant mix the range of drug concentrations used in Example 1 was used.
BDP formulations were prepared at 0.070 percent by weight (1.0 mg/mL) in HFC 227 and at 0.38 percent by weight (5.0 mg/mL) in a 1:1 mixture of HFC 227 and HFC 134a.
Formulations of salmeterol free base at 0.02 percent by weight and 0.05 percent by weight were prepared in HFC 134a and in HFC 227 by placing the drug and 5 mL of glass beads into a 15 mL glass vial, crimping on a continuous valve, and adding the appropriate amount of propellant. The formulations were shaken on a paint shaker for 10 min in order to disperse the drug.
The vial was then shaken on a paint shaker, chilled, and the contents transferred to 10 mL vials fitted with the metered dose valve. […] Valve delivery was measured through the life of the formulations.

[3] = Respirable fraction (Anderson Cascade Impactor)
Protocol: In this assay the respirable fraction (the percent by weight of particles having an aerodynamic particle size of less than 4.7 microns) of the aerosol suspension is determined using an Anderson Cascade Impactor (available from Anderson Sampler Inc,; Atlanta, Ga.).
The aerosol vial to be tested is primed five times. The valve and valve stem are then cleaned with methanol and dried with compressed air. The aerosol vial and a clean, dry actuator are coupled to the glass throat attached to the top of the impactor using an appropriate firing adaptor. The calibrated vacuum pump (28.3 L/min) attached to the cascade impactor is turned on. A total of 20 sprays is delivered into the cascade impactor by repeatedly shaking the vial, seating it in the actuator and immediately delivering a single spray. The time between sprays is approximately 30 seconds. The cascade impactor is disassembled and each component is rinsed separately with diluent (55 parts methanol mixed with 45 parts of 0.1 percent aqueous phosphoric acid, v/v). Each solution is analyzed for pirbuterol acetate content using high performance liquid chromatography. The respirable fraction is calculated as follows:
% respirable=drug recovered from plates 3-7×100 total drug−drug recovered from recovered actuator and valve
In Examples 13-14 below respirable fraction is determined using the test method described above but using a diluent of 45 parts by volume methanol and 55 parts by volume of 0.1 percent aqueous phosphoric acid.

[4] = Example 1: drug concentration 0.017 % in HFC 134a alone
[5] = Example 1: drug concentration 0.039 % in HFC 134a alone
[6] = Example 1: drug concentration 0.083 % in HFC 134a alone
[7] = Example 1: drug concentration 0.41 % in HFC 134a alone
[8] = Example 1: drug concentration 1.63 % in HFC 134a alone
[9] = Example 4: 0.070 percent in HFC 227
[10] = Example 4: 0.38 percent in 1:1 HFC 134a/HFC 227
[11] = Example 5: 0.02 and 0.05 percent by weight in HFC 134a and in HFC 227

In the case of `CC(C)(C)NCC(O)c1ccc(O)c(CO)c1` (stereo not drawn) [Albuterol], the “visual assessment of formulation” value [1, 4] is reported as “+”, the “visual assessment of formulation” value [1, 5] is reported as “+” and the “visual assessment of formulation” value [1, 6] is reported as “?”. For the same molecule, the “visual assessment of formulation” value [1, 7] was “−”, the “visual assessment of formulation” value [1, 8] was “+” and the homogeneity of suspension [2] was “particularly homogenous suspensions”.
In the case of `CCC(=O)OCC(=O)[C@@]1(OC(=O)CC)[C@@H](C)C[C@H]2[C@@H]3CCC4=CC(=O)C=C[C@]4(C)[C@@]3(Cl)[C@@H](O)C[C@@]21C` [Beclomethasone dipropionate], the “visual assessment of formulation” value [1, 4] is reported as “+”, the “visual assessment of formulation” value [1, 5] is reported as “+” and the “visual assessment of formulation” value [1, 6] is reported as “?”. For the same molecule, the “visual assessment of formulation” value [1, 7] was “−”, the “visual assessment of formulation” value [1, 8] was “+” and the homogeneity of suspension [2] was “particularly homogenous suspensions”. For the same molecule, the dispersion [2, 9] was “fairly well dispersed”, the “time of flocculation after shaking” value [2, 9] was “about 10 seconds” and the flocculation [2, 10] was “flocculation was rapid”. The “settling or creaming of flocs” value [2, 10] was “the flocs neither settled nor creamed”.
In the case of `O=C([O-])c1cc(=O)c2c(OCC(O)COc3cccc4oc(C(=O)[O-])cc(=O)c34)cccc2o1.[Na+].[Na+]` [Disodium cromoglycate], the “visual assessment of formulation” value [1, 4] is reported as “+”, the “visual assessment of formulation” value [1, 5] is reported as “+” and the “visual assessment of formulation” value [1, 6] is reported as “?”. For the same molecule, the “visual assessment of formulation” value [1, 7] was “−”, the “visual assessment of formulation” value [1, 8] was “−” and the homogeneity of formulation ([2]; Example 2: 0.015, 0.035 and 0.070 percent by weight in HFC 227, no surfactant) was “particularly homogenous”. The flocculation and sedimentation ([2]; Example 2: 0.35 percent and 1.4 percent in HFC 227, no surfactant) was “more rapid flocculation and sedimentation”.
For Pirbuterol acetate, the “visual assessment of formulation” value [1, 4] was “+”, the “visual assessment of formulation” value [1, 5] was “+” and the “visual assessment of formulation” value [1, 6] was “?”. For the same molecule, the “visual assessment of formulation” value [1, 7] was “?”, the “visual assessment of formulation” value [1, 8] was “+” and the “suitability for metered dose inhaler” value ([2]; Example 9: 0.9 percent by weight pirbuterol acetate in HFC 227) was “deemed to be suitable for use in connection with a metered dose inhaler”. The “suitability for metered dose inhaler” value ([2]; Example 10: 0.90 percent pirbuterol acetate, 0.23 percent oleic acid, 10.0 percent ethanol, HFC 227) was “deemed to be suitable for use in connection with a metered dose inhaler”, the “respirable fraction (aerodynamic particle size less than 4.7 microns)” value (“respirable fraction” below) ([3]; Example 11: 0.9 percent by weight pirbuterol acetate in HFC 227, duplicate, two vials) was 59.1% and 54.8% and 53.9% and 49.3% and the “respirable fraction” value ([3]; Example 12: 0.9 percent pirbuterol acetate, 10 percent ethanol, HFC 227, duplicate, two vials) was 34.9% and 32.5% and 31.7% and 31.3%. The “respirable fraction” value ([3]; Example 16: 0.9 percent pirbuterol acetate, 3 percent ethanol, HFC 227, two separate vials) was 59.8% and 52.8% and the “respirable fraction” value ([3]; Example 17: 0.9 percent pirbuterol acetate, 5 percent ethanol, HFC 227, two separate vials) was 48.2% and 43.5%.
With Albuterol sulfate the “visual assessment of formulation” value [1, 4] was “+”, the “visual assessment of formulation” value [1, 5] was “+” and the “visual assessment of formulation” value [1, 6] was “+”. For the same molecule, the “visual assessment of formulation” value [1, 7] was “−”, the “visual assessment of formulation” value [1, 8] was “−” and the homogeneity of formulation ([2]; Comparative Example: CFC propellant mixes A and B (Propellants 11/114/12), no surfactant, 0.20, 0.50 and 1.0 mg/mL) was “acceptably homogenous”. For the same molecule, the “caking of drug on container walls” value ([2]; Comparative Example: CFC propellant mixes A and B versus HFC 134a counterparts of Example 1) was “more caking of drug on the walls of the container than their HFC 134a counterparts”, the flocculation ([2]; Comparative Example: CFC propellant mixes A and B, no surfactant, 5.0 and 20 mg/mL) was “relatively rapid flocculation” and the “suitability for metered dose inhaler” value ([2]; Example 15: 0.37 percent albuterol sulfate, 0.10 percent sorbitan trioleate, 9.95 percent ethanol, 89.58 percent HFC 227) was “deemed to be suitable for use in connection with a metered dose inhaler”. The “respirable fraction” value ([3]; Example 13: 0.4 percent by weight albuterol sulfate in HFC 227, duplicate, two vials) was 69.3% and 60.6% and 64.0% and 63.0% and the “respirable fraction” value ([3]; Example 14: 0.40 percent albuterol sulfate, 0.50 percent oleic acid, 15.0 percent ethanol, HFC 227, duplicate, two vials) was 28.0% and 22.0% and 27.1% and 28.8%.
For `OCc1cc(C(O)CNCCCCCCOCCCCc2ccccc2)ccc1O` (stereo not drawn) [salmeterol free base, salmeterol], the creaming [2, 11] was “cream in both propellants, more so in HFC 227 than in HFC 134a”, the flocculation [2, 11] was “Flocculation was also apparent” and the “suitability for metered dose inhaler” value [2, 11] was “deemed suitable for use in connection with a metered dose inhaler”.
